Assay results: PubChem BioAssay AID743417 (Broad Institute, 2014)
Results filed as inconclusive are left out. Activity calls are given as the source filed them.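 How the source made its calls: active means compounds lowering the luciferase signal with a fitted half-maximal dose at most twice their top valid dose (cut at about 30 µM in these data); inconclusive means flat fits with moderate signal loss, or poor fits; inactive means the rest.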

System: Clone20 osteoblast Shn3 3'UTR firefly luciferase, 24 h
Assay: Shn3 3'UTR reporter inhibitors, dose response, cell-based, Clone20 osteoblasts, luminescence, dry powder, set 2 (AID 743417)

Compound	AC50
CC1C(OC(=O)CCC(=O)NC(C)(C)CO)O[C@H]2OC3(C)CC[C@H]4[C@H](C)CCC1C24OO3 (some centres not stated)	0.495 µM
CC(C)(C)OC(=O)NCc1ccc(CNC(=O)c2nc[nH]c2C(=O)NCc2ccc(CNC(=O)OC(C)(C)C)cc2)cc1	5.89 µM
COC(=O)c1ccccc1NC(=S)N(Cc1ccc2c(c1)OCO2)Cc1cc2cc(OC)ccc2[nH]c1=O	10.4 µM
CCC12CN(S(=O)(=O)c3ccc(C)cc3)CC(CC)(CN(S(=O)(=O)c3ccc(C)cc3)C1)C2=O	3.48 µM
C=C1CC2(OC1=O)c1ccccc1CCc1ccccc12	1.28 µM
COc1ccc(CCNc2ncnc3sccc23)cc1OC	< 0.26 µM
CC1C(=O)N(Cc2cn(CCC3OCCCO3)nn2)CCS(=O)(=O)N1Cc1ccc(-c2ccc(Cl)c(Cl)c2)cc1 (configuration not stated)	3.39 µM
CCOc1ccc(-c2nnc(N3CCCCC3)c3ccccc23)cc1	14.9 µM
C=C(CN(C)C)C(=O)c1ccc(C)cc1C	0.77 µM
COc1ccc(CC(N)c2csc(NC(=O)NC(c3ccccc3)c3ccccc3)n2)cc1 (configuration not stated)	6.4 µM
Cc1csc(NC(=O)Cc2nn(C)c(=O)c3ccccc23)n1	6.82 µM
Oc1ccc(CN2CCc3ccccc3C2)c2cccnc12	0.673 µM
Oc1cc(-c2cccnc2)cc2cccnc12	9.27 µM
Cc1cccc(CS(=O)(=O)c2ncc(Cl)c(C(=O)NCc3ccccc3)n2)c1	2.94 µM
C=C1C(=O)O[C@@H]2C[C@@H](C)[C@@H]3C=CC(=O)[C@@]3(C)[C@@H](OC(=O)CC(=O)O[C@H]3[C@@H]4C(=C)C(=O)O[C@@H]4C[C@@H](C)[C@@H]4C=CC(=O)[C@]43C)[C@H]12	0.292 µM
O=C(CSc1ccccn1)Nc1nonc1[N+](=O)[O-]	5 µM
CCSc1nc2ccccc2n1C(=O)/C=C/c1ccc(OC)c(OC)c1	0.962 µM
O=C(Nc1ccc(-c2nc3ncccc3o2)cc1)c1ccc([N+](=O)[O-])o1	1.34 µM
Cc1cc(C)n(-c2nc(Nc3ccccc3C(F)(F)F)nc(-n3nc(C)cc3C)n2)n1	5.49 µM
CC(C)c1nnc(NC(=O)c2nc(S(=O)(=O)Cc3ccc(F)cc3)ncc2Cl)s1	2.83 µM
Cc1nc2ccccc2c2oc(C(=O)N3CCN(C4CCCCC4)CC3)cc12	7.02 µM
COc1ccc(N2CCN(C(=O)CN3CCN(c4nc(-c5ccc(F)cc5)cs4)CC3)CC2)cc1	1.81 µM
C#CC(=O)N(c1cc(OC)ccc1OC)C(C(=O)NC1CCCC1)c1cccs1 (configuration not stated)	4.57 µM
CCc1nc(N2CCN(C(C)=O)CC2)c2c3c(sc2n1)CC(C(C)(C)C)CC3 (configuration not stated)	6.76 µM
O=[N+]([O-])c1ccc(S(=O)(=O)c2ccccc2)nc1	1.74 µM
COc1ccc(C(=O)/C=C/C(=O)N(CC(=O)NCCC(C)C)Cc2cccs2)c(O)c1	3.49 µM

Compound	AC50
Cc1ccc(-n2nnnc2C(Cl)(Cl)c2nnnn2-c2ccc(C)cc2)cc1	4.71 µM
COc1ccc(Oc2cc(NC(=O)c3nn(C)cc3[N+](=O)[O-])cc([N+](=O)[O-])c2)cc1	0.813 µM
CCOC(=O)CS(=O)(=O)c1nc(-c2ccc(F)cc2)cc(C(F)(F)F)n1	1.78 µM
O=C(Nc1cccc(C(F)(F)F)c1)c1sc(Cl)nc1C(F)(F)F	9.06 µM
COc1ccc(NS(=O)(=O)c2ccc3ccccc3c2)c2ncccc12	4.82 µM
Cc1ccc(NC(=O)C2CCN(S(=O)(=O)c3ccc4c(c3)NC(=O)C(C)S4)CC2)cc1C (configuration not stated)	2.61 µM
CCOc1cc(S(=O)(=O)NCc2ccncc2)ccc1Cl	< 0.26 µM
Cc1onc(-c2ccccc2Cl)c1C(=O)N1CCC(Cc2ccccc2)CC1	2.29 µM
CC(=O)c1ccc(N2CCN(S(=O)(=O)c3ccc(-c4cnc(C5CC5)o4)cc3)CC2)cc1	5.95 µM
CCCCCCNC(=O)O[C@H]1Cn2c(=O)ccc(=O)n2[C@@H]2CN(S(=O)(=O)c3ccc(C)cc3)C[C@]12O	14.1 µM
CC(=O)C1(C)CCC2C3C=C(C)C4=CC(=O)CCC4(C)C3CCC21C (configuration not stated)	9.83 µM
Cc1cccc(C)c1-n1nnnc1C(c1cc2ccccc2o1)N1CCC(n2c(=O)[nH]c3ccccc32)CC1 (configuration not stated)	3.05 µM
CCCCNS(=O)(=O)c1ccc(S(=O)(=O)NCc2ccncc2)cc1	2.4 µM
CC(C)NS(=O)(=O)c1ccc(CCC(=O)Nc2cc(Cl)ccc2Oc2ccccc2)cc1	7.65 µM
CCCCn1c(CN(C)Cc2ccccc2)nc2c1c(=O)n(C)c(=O)n2C	2.38 µM
CCOc1ccc(S(=O)(=O)NCc2ccncc2)cc1	0.261 µM
Cc1ccc(S(=O)(=O)Nc2cccc3ncccc23)s1	3.85 µM
O=C(NCc1cccnc1)/C(=C/c1ccc(-c2ccc(Cl)cc2)o1)S(=O)(=O)c1ccccc1	5.35 µM
CCOC(=O)c1cnc(-n2nc(C)cc2C)nc1NNc1nc(-c2ccccc2)cc(-c2ccccc2)n1	3.84 µM
COc1cnc(-c2ccccn2)nc1N(C)c1ccccc1	1.83 µM
O=C(Nc1ccccc1Cl)/C(Cl)=C(\Cl)S(=O)c1ccccc1 (configuration not stated)	0.438 µM
Cc1nc2ccc(NC(=O)c3cccc(S(=O)(=O)N(C)c4ccccc4)c3)cc2s1	7.6 µM
O=C(CSc1nnc(-c2cccnc2)s1)Nc1ccnc2ccccc12	0.661 µM
Cc1ccc(CNC(=O)c2cc(-c3ccccc3C)nn2CC2CC(c3cccnc3)=NO2)cc1 (configuration not stated)	> 70 µM (inactive)
CC(C)Cn1c(N)c(C(=O)COC(=O)C2Cc3ccccc3CN2S(C)(=O)=O)c(=O)n(C)c1=O (configuration not stated)	0.72 µM
O=c1cc(-c2ccc(O)cc2)oc2ccc3ccccc3c12	5.41 µM

Compound	AC50
CCOc1ccc(N(C)S(=O)(=O)c2cc(-c3cc(C)no3)ccc2C(C)C)cc1	4.13 µM
CC(C)n1c(/C=C/[C@H](O)C[C@H](O)CC(=O)O)c(-c2ccc(F)cc2)c2ccccc21	1.42 µM
Cn1c(=O)c2[nH]c(CCCCCCCCc3nc4ccccc4[nH]3)nc2n(C)c1=O	3.98 µM
CN(C)CC(C(=O)c1ccccc1)c1ccccc1 (configuration not stated)	2.8 µM
CCN(c1ccccc1)S(=O)(=O)c1ccc(Cl)c(NC(=O)CN(C)Cc2cccc(F)c2)c1	8.78 µM
O=C(Nc1nc2c(F)cc(F)cc2s1)c1ccccn1	6.69 µM
Cc1cc(NC(=O)CCN2CCN(C/C=C/c3ccccc3)CC2)ccc1Br	10.2 µM
CCCCn1c(CN2CCN(c3ccc(F)cc3)CC2)nc2c1c(=O)n(C)c(=O)n2C	2.73 µM
CC(C)c1ccccc1-n1c(SCC(=O)N2CCc3ccccc3C2)nc2ccccc2c1=O	2.99 µM
CCCCC(=O)NC(c1ccc(OC)cc1)c1ccc2cccnc2c1O (configuration not stated)	2.28 µM
N#C/C(=C(\O)Cc1ccccc1)c1nc2ccccc2[nH]1	> 70 µM (inactive)
CN1CCN(S(=O)(=O)c2ccc(N(C)Cc3ccc(C(F)(F)F)cc3)c([N+](=O)[O-])c2)CC1	6.3 µM
CCC(=O)c1ccc(OCC(O)Cn2c(C)nc3ccccc32)cc1 (configuration not stated)	2.28 µM
O=C1NCCOC(=O)[C@@H](Cc2ccc(F)cc2)CC/C=C/C[C@@H]1CC(=O)N(CCO)Cc1ccccc1	> 70 µM (inactive)
COc1ccc(C(C(=O)NC2CCCCC2)N(C(=O)CCl)c2ccc(OC)cc2)cc1 (configuration not stated)	5.56 µM
CCCCCCCCNC(C)C(O)c1ccc(SC(C)C)cc1 (configuration not stated)	3.94 µM
CCCCCn1c(=O)c(C(=O)Nc2cnccn2)c(O)c2ccccc21	1.54 µM
COc1ccc2c(CC(=O)OCC(=O)N(C)c3c(N)n(Cc4ccccc4)c(=O)[nH]c3=O)coc2c1	21.2 µM
CCC(=O)OCCNc1cc(Sc2nc3ccccc3[nH]2)c2nonc2c1[N+](=O)[O-]	1.09 µM
CN(C(=O)OC(C)(C)C)c1ccc(-c2nc3ccccc3s2)cc1	< 0.26 µM
Cc1ccc(Nc2nc(NCc3ccco3)c3ccccc3n2)cc1	9.84 µM
NS(=O)(=O)c1ccc(CCNCc2cc(Br)ccc2OCc2ccccc2)cc1	2.92 µM
c1ccc(CCNc2ccnc3cc4ccccc4cc23)cc1	1.62 µM
Cc1cc(C)c(C(N)=O)c(SCC(=O)c2cc(C)n(-c3cc(C)on3)c2C)n1	0.942 µM
O=C(C(=Cc1ccccc1)CN1CCCCC1)c1ccccc1	3.18 µM
CCCCNc1cccc2c1S(=O)(=O)N(CCCC)CC(COCc1ccccc1)O2 (configuration not stated)	8.93 µM

Compound	AC50
CC(C)Cn1c(N)c(C(=O)COC(=O)CC23CC4CC(CC(C4)C2)C3)c(=O)n(C)c1=O	1.51 µM
NC(=Nc1nc(-c2ccccn2)cc2ccccc12)c1ccccn1	< 0.26 µM
O=C(OC12CC3CC(CC(C3)C1)C2)c1ccc(NCc2cc(O)ccc2O)cc1	2.33 µM
C=C1C(=O)[C@]23C[C@H]1CCC2[C@]1(C)CCC[C@@](C)(C(=O)O)C1C[C@@H]3O (some centres not stated)	1.2 µM
CCCCN(C(C)=O)c1ccc2c(c1)C1CC2CCN1C(=O)OCc1ccccc1 (configuration not stated)	1.37 µM
C=CCn1c(C)cc(C(=O)CN2C(=O)c3ccccc3S2(=O)=O)c1C	0.974 µM
O=[N+]([O-])c1cccnc1S(=O)(=O)c1ccccc1	4.79 µM
C=C1C(=O)[C@]23C[C@H]1CCC2[C@@]1(C)C(C[C@@H]3O)[C@](C)(C(=O)OC)CC[C@@H]1OC(C)=O (some centres not stated)	2.14 µM
Cc1cc(NC(c2ccc(Cl)cc2)c2ccc3cccnc3c2O)no1 (configuration not stated)	1.05 µM
Cc1oc(=O)c(NC(=O)c2ccc(Cl)cc2)cc1C(=O)c1ccccc1	32.1 µM
C=CCC[C@H](Cc1ccc(F)cc1)C(=O)OC[C@H](Cc1c[nH]c2ccccc12)NC(=O)[C@H](CC=C)CC(=O)N(CCO)Cc1ccccc1	11.7 µM
O=C(OCCC12CC3CC(CC(C3)C1)C2)c1ccc(NCc2cc(O)ccc2O)cc1	1.82 µM
NC(=O)c1ccc(N2CCN(S(=O)(=O)c3cccs3)CC2)c([N+](=O)[O-])c1	0.305 µM
O=C1NC2C(=CC(O)C(O)C2O)c2cc3c(cc21)OCO3 (configuration not stated)	2.22 µM
CCC(C)C(NC(=O)CCCNC(=O)CCC(=O)OC1O[C@H]2OC3(C)CC[C@H]4[C@H](C)CCC(C1C)C24OO3)C(=O)O (some centres not stated)	1.02 µM
COC(=O)C1=C(c2ccc(F)cc2OCc2ccccc2)C[C@@H]2CC[C@H]1N2C(=O)NCc1ccc(C(F)(F)F)cc1	9.14 µM
COc1ccc(CCN2CCC(Nc3nc4ccccc4n3Cc3ccc(F)cc3)CC2)cc1	3.03 µM
COc1ccc(OC)c(C(c2nnnn2Cc2ccccc2)N2CCN(C3CCCCC3)CC2)c1 (configuration not stated)	> 70 µM (inactive)
COc1ccc(CNCCc2ccc(Cl)cc2)cc1OCc1ccccc1	5.59 µM
FC(F)(F)c1cccc(NC(=S)NC(c2ccccc2)c2ccccc2)c1	7.17 µM
CCCc1nc([N+](=O)[O-])c(S(=O)(=O)c2ccccc2)n1CC(C)C	7.39 µM
COC(=O)c1ccc(CCc2cc(O)ccc2O)cc1	3.14 µM
Cc1ccc(-c2ccc(/C=C3\C(=O)ON=C3c3ccccc3)o2)c([N+](=O)[O-])c1	3.3 µM
Cc1ccnc2c1ccc1c(C)ccnc12	0.857 µM
